Drawing on ChEMBL document CHEMBL3525899, “Identification of the cytochrome P450 and other enzymes involved in the in vitro oxidative metabolism of a novel antidepressant, Lu AA21004” (Drug Metab Dispos, 2012), this text covers Drug metabolism and Km for 1 compound.

By Km is commonly meant the concentration of substrate that gives half-maximal velocity.

Series [1] deals with Cytochrome P450 2E1 (Homo sapiens, UniProt P05181). Kind of series: Activity of human recombinant CYP2E1 expressed in microsomes isolated from human AHH-1 cells assessed as enzyme-mediated 3-(2,4-dimethylphenylthio)-4-(piperazin-1-yl)phenol formation at 8 to 50 uM after 120 mins by HPLC/MS-MS analysis in presence of NADPH regenerating system with NADP+. The format is ADME, cell-free. The following applies: 2 h.
Chain of Cytochrome P450 2E1 (P05181 whole entry): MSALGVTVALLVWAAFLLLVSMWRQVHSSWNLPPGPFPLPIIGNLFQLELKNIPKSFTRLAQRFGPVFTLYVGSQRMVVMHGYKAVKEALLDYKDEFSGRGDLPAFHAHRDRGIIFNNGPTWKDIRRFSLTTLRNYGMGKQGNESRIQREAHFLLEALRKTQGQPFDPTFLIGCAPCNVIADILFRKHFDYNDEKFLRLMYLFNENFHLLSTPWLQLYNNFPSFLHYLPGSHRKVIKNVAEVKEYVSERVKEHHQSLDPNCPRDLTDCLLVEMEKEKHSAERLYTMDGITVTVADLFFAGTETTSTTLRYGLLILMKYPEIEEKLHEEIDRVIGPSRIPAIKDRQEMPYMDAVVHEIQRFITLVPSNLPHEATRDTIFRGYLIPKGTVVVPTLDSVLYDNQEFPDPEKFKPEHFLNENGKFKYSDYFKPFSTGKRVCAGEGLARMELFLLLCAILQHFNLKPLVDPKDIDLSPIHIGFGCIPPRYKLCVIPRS

Series [2] relates to Liver microsome. Kind of series: Drug metabolism in pooled human liver microsomes assessed as formation of 1-(2-(2,4-dimethylphenylsulfinyl)phenyl)piperazine after 30 mins by Michaelis-Menten plot analysis in presence of NADPH regenerating system with NADP+. The following applies: 0.5 h, read-out: Km(app). The series is classed as ADME. On the technique in general: Microsomes from liver hold many membrane-bound enzymes, among them those of drug oxidation.

The target in series [3] is T1, Flavin-containing monooxygenase 3 (Homo sapiens, UniProt P31513).
T1 sequence (P31513 whole entry): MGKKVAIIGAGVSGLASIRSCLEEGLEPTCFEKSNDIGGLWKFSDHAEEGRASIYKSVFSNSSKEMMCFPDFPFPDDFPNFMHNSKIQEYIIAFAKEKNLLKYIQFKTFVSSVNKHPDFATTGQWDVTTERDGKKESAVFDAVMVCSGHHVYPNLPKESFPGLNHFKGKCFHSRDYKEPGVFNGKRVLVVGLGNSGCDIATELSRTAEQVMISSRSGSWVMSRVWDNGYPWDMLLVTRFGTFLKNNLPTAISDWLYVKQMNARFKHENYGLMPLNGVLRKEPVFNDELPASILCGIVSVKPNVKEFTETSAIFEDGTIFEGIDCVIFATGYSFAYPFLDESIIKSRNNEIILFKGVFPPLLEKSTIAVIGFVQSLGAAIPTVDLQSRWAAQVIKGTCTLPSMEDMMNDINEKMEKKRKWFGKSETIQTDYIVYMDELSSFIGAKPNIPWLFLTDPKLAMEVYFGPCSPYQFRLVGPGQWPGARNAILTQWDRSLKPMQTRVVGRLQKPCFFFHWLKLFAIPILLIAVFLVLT
The experiment in a line: Activity of human recombinant FMO3 expressed in microsomes isolated from baculovirus infected insect BTI-TN-5B1-4 cells assessed as enzyme-mediated 4-(2-(2,4-dimethylphenylthio)phenyl)piperazin-1-ol formation at 8 to 50 uM after 120 mins by HPLC/MS-MS analysis in presence of NADPH regenerating system with NADP+. The series is classed as ADME. The note with it: 2 h.

For series [4], the system named is Liver microsome. Kind of series: Drug metabolism in pooled human liver microsomes at 100 uM after 30 to 180 mins by HPLC/MS-MS analysis in presence of NADPH regenerating system without NADP+. The series is classed as ADME.
Series [5] addresses Cytochrome P450 3A4 (Homo sapiens, UniProt P08684). The experiment in a line: Activity of human recombinant CYP3A4 expressed in microsomes isolated from human AHH-1 cells assessed as enzyme-mediated 1-(2-(2,4-dimethylphenylsulfinyl)phenyl)piperazine formation at 8 to 50 uM after 120 mins by HPLC/MS-MS analysis in presence of NADPH regenerating system with NADP+. The series is classed as ADME, cell-free. The note with it: 2 h.

In series [6] the test system is Liver microsome. The experiment in a line: Drug metabolism in pooled human liver microsomes assessed as formation of 4-(2-(2,4-dimethylphenylthio)phenyl)piperazin-1-ol after 30 mins by Michaelis-Menten plot analysis in presence of NADPH regenerating system with NADP+. The series is classed as ADME. The following applies: 0.5 h, read-out: Km(app).
The test system of series [7] is Liver microsome. Kind of series: Drug metabolism in pooled human liver microsomes assessed as formation of (3-methyl-4-(2-(piperazin-1-yl)phenylthio)phenyl)methanol after 30 mins by Michaelis-Menten plot analysis in presence of NADPH regenerating system with NADP+. The series is classed as ADME. The following applies: 0.5 h, read-out: Km(app).
The target in series [8] is T1, Flavin-containing monooxygenase 3. Kind of series: Activity of human recombinant FMO3 expressed in microsomes isolated from baculovirus infected insect BTI-TN-5B1-4 cells assessed as enzyme-mediated 1-(2-(2,4-dimethylphenylsulfinyl)phenyl)piperazine formation at 8 to 50 uM after 120 mins by HPLC/MS-MS analysis in presence of NADPH regenerating system with NADP+. The series is classed as ADME. The note with it: 2 h.

Series [9] concerns the target T2, Cytochrome P450 2B6 (Homo sapiens, UniProt P20813).
T2 sequence (P20813 whole entry): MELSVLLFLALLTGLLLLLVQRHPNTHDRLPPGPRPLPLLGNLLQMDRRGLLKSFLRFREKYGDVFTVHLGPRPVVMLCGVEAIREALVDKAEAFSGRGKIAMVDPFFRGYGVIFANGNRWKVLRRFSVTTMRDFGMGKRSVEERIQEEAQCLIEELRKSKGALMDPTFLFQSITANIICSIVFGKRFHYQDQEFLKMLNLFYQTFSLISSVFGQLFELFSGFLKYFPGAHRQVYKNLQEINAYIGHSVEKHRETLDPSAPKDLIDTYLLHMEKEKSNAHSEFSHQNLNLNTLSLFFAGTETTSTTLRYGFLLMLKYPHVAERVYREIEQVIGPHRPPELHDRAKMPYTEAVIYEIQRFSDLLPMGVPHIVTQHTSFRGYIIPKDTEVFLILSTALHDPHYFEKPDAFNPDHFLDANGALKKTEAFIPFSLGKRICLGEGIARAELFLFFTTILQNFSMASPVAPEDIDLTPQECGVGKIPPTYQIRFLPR
Kind of series: Activity of human recombinant CYP2B6 expressed in microsomes isolated from human AHH-1 cells assessed as enzyme-mediated 1-(2-(2,4-dimethylphenylsulfinyl)phenyl)piperazine formation at 8 to 50 uM after 120 mins by HPLC/MS-MS analysis in presence of NADPH regenerating system with NADP+. The note with it: 2 h. The series is classed as ADME, cell-free.

In series [10] the target is T3, Cytochrome P450 2C19 (Homo sapiens, UniProt P33261). Kind of series: Activity of human recombinant CYP2C19 expressed in microsomes isolated from human AHH-1 cells assessed as enzyme-mediated 4-(2-(2,4-dimethylphenylthio)phenyl)piperazin-1-ol formation at 8 to 50 uM after 120 mins by HPLC/MS-MS analysis in presence of NADPH regenerating system with NADP+. The format is ADME, cell-free. The following applies: 2 h.
T3 sequence (P33261 whole entry): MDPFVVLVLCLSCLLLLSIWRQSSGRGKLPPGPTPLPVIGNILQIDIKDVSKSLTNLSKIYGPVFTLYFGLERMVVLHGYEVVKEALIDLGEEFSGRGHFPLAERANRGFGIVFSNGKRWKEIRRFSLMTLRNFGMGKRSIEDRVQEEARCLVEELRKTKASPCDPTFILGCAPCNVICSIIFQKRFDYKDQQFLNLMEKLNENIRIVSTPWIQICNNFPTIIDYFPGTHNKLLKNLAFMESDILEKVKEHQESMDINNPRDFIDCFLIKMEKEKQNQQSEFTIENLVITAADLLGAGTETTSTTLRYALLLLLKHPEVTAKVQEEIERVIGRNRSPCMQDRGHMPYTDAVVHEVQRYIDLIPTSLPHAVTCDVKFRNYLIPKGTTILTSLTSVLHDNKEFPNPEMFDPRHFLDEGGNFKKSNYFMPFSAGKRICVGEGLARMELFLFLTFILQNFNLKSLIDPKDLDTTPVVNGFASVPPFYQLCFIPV

The test system of series [11] is Liver microsome. The experiment in a line: Drug metabolism in pooled human liver microsomes assessed as formation of 3-methyl-4-(2-(piperazin-1-yl)phenylthio)benzoic acid at 100 uM after 30 to 180 mins by HPLC/MS-MS analysis in presence of NADPH regenerating system with NADP+. The series is classed as ADME.
The target in series [12] is T3, Cytochrome P450 2C19. Kind of series: Activity of human recombinant CYP2C19 expressed in microsomes isolated from human AHH-1 cells assessed as enzyme-mediated 3-(2,4-dimethylphenylthio)-4-(piperazin-1-yl)phenol formation at 8 to 50 uM after 120 mins by HPLC/MS-MS analysis in presence of NADPH regenerating system with NADP+. The format is ADME, cell-free. The following applies: 2 h.

The subject of series [13] is Liver microsome. The experiment in a line: Drug metabolism in pooled human liver microsomes assessed as formation of 3-(2,4-dimethylphenylthio)-4-(piperazin-1-yl)phenol at 100 uM after 30 to 180 mins by HPLC/MS-MS analysis in presence of NADPH regenerating system with NADP+. The series is classed as ADME.
Series [14] addresses Cytochrome P450 2C9 (Homo sapiens, UniProt P11712). Kind of series: Activity of human recombinant CYP2C9 expressed in microsomes isolated from human AHH-1 cells assessed as enzyme-mediated (3-methyl-4-(2-(piperazin-1-yl)phenylthio)phenyl)methanol formation at 8 to 50 uM after 120 mins by HPLC/MS-MS analysis in presence of NADPH regenerating system with NADP+. The format is ADME, cell-free. The note with it: 2 h.

For series [15], the target named is T1, Flavin-containing monooxygenase 3. The experiment in a line: Activity of human recombinant FMO3 expressed in microsomes isolated from baculovirus infected insect BTI-TN-5B1-4 cells assessed as enzyme-mediated 3-methyl-4-(2-(piperazin-1-yl)phenylthio)benzoic acid formation at 8 to 50 uM after 120 mins by HPLC/MS-MS analysis in presence of NADPH regenerating system with NADP+. The format is ADME. The following applies: 2 h.

Chain of Cytochrome P450 3A4 (P08684 whole entry): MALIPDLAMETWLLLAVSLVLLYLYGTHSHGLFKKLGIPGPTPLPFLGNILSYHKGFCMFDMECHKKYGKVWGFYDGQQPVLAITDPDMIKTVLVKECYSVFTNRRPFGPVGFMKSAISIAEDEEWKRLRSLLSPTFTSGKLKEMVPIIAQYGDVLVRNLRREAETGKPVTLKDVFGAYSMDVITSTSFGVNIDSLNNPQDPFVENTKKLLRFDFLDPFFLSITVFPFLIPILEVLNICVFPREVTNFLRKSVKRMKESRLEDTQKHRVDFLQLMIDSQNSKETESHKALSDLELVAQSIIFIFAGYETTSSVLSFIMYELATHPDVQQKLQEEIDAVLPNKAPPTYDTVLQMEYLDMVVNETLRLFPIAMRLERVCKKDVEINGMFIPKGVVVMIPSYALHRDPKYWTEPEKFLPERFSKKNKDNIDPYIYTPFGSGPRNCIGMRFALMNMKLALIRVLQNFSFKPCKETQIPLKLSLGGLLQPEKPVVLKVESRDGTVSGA
Chain of Cytochrome P450 2C9 (P11712 whole entry): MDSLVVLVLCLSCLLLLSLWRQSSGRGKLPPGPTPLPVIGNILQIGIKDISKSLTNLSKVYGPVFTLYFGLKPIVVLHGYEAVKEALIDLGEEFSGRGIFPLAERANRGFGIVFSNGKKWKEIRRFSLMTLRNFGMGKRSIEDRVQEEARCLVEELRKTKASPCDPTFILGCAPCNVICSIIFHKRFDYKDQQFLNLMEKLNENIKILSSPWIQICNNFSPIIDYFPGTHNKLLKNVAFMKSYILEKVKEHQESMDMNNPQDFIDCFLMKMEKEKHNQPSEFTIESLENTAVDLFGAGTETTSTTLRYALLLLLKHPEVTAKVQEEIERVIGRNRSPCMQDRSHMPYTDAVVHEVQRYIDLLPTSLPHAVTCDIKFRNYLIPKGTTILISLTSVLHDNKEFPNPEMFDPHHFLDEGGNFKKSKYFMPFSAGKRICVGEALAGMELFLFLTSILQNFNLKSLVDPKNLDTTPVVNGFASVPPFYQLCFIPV

Take `Br.Cc1ccc(Sc2ccccc2N2CCNCC2)c(C)c1` [VORTIOXETINE HYDROBROMIDE]: the Drug metabolism result is given as “metabolite_not_detected” in series [1]; “metabolite_not_detected” in series [3]; “metabolite_not_detected” in series [4]; “metabolite_detected” in series [5]; “metabolite_not_detected” in [8]; “metabolite_not_detected” in series [9]. The Drug metabolism entry was “metabolite_detected” in [10]; “metabolite_detected” in [11]; “metabolite_detected” in series [12]; “metabolite_detected” in series [13]; “metabolite_detected” in series [14]; “metabolite_not_detected” in [15]. The Km is no less than 208 µM in series [2], 300 µM in [6] and 231 µM in [7].
